The results in this text go back to ChEMBL document CHEMBL1139570, “Estrogen receptor ligands: design and synthesis of new 2-arylindene-1-ones” (Bioorg Med Chem Lett, 2005).

Test [1] addresses Estrogen receptor beta (Homo sapiens, UniProt Q92731).
Description: Inhibition of human estrogen receptor beta
Test [2] deals with T1, Estrogen receptor (Homo sapiens, UniProt P03372).
T1 sequence (P03372 whole entry): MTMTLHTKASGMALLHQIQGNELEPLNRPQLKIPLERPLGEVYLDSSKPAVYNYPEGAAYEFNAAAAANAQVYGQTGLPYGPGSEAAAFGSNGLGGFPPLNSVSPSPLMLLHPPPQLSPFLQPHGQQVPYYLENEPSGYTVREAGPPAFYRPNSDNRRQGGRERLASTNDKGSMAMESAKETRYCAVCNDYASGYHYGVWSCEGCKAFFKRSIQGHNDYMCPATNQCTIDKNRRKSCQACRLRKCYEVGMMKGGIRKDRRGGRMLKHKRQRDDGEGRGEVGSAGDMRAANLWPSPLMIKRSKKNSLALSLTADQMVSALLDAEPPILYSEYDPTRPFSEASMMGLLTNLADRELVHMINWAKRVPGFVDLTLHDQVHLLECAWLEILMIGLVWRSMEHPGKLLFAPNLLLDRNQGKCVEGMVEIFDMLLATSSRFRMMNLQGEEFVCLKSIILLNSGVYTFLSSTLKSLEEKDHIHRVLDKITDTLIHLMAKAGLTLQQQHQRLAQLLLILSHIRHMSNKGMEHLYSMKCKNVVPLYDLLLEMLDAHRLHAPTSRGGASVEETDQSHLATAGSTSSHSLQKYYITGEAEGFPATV
Description: Inhibition of human estrogen receptor alpha

Estrogen receptor beta, sequence (Q92731 whole entry): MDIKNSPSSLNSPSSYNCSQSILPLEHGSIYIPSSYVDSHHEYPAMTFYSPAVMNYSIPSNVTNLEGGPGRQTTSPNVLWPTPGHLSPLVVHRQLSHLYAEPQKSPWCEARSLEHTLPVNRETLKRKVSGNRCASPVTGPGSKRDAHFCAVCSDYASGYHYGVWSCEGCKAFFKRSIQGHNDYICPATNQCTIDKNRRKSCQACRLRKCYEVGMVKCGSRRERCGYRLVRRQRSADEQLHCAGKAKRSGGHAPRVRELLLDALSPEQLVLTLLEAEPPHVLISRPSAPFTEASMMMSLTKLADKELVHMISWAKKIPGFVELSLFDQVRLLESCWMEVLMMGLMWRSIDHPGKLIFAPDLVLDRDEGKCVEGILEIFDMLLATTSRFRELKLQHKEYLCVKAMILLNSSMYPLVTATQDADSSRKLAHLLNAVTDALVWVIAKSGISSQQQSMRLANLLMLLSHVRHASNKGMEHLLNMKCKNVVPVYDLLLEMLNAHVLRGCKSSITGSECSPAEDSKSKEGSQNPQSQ

Take `NC1=C(c2ccc(O)cc2)C(=O)c2cc(O)ccc21`: the IC50 was 1150 nM in test [1] and above 5000 nM in test [2]. With `CCSC1=C(c2ccc(O)cc2)C(=O)c2cc(O)cc(O)c21`, the IC50 in test [1] was 150 nM; in test [2], 580 nM. In test [2], `CCSC1=C(c2ccc(O)cc2)C(=O)c2ccc(O)cc21` had an IC50 of 480 nM. As to `CC/N=C1/C(c2ccc(O)cc2)=C(O)c2cc(O)cc(O)c21`, the IC50 in test [1] is 2700 nM; in test [2], above 5000 nM. In turn, `O=C1C(c2ccc(O)cc2)=C(O)c2ccc(O)cc21` showed an IC50 in test [2] above 5000 nM. Same read-out and setting: next, `O=C1C(c2ccc(O)cc2)=C(O)c2cc(O)cc(O)c21`: above 5000 nM.

For `O=C1C(c2ccc(O)cc2)=C(c2ccccc2)c2ccc(O)cc21`, the IC50 in test [1] and in test [2] was 9 nM each time. Take `CSC1=C(c2ccc(O)cc2)C(=O)c2ccc(O)cc21`: the IC50 is 1.3 nM in test [1] and 3.1 nM in test [2]. As for `COc1ccc2c(c1)C(Br)=C(c1ccc(O)cc1)C2=O`, the concentration for half-maximal inhibition (IC50) came out at 199 nM in test [1] and 1800 nM in test [2]. Consider `O=C1C(c2ccc(O)cc2)=C(Br)c2cc(O)ccc21`, for which the IC50 in test [1] is 1.7 nM; in test [2] it was 5.2 nM.

With `CC1=C(c2ccc(O)cc2)C(=O)c2c(O)cc(O)cc21`, it took 2.4 nM to reach half-maximal inhibition in test [1] (IC50). In the case of `O=C1C(c2ccc(O)cc2)=C(c2ccccc2)c2cc(O)ccc21`, the IC50 in test [1] and in test [2] was 10 nM each time.

Broadly, the IC50 is the midpoint of a concentration-inhibition curve.
